# Measured values reported in patent US9974782B2, “Phosphodiesterase inhibitors and uses thereof” (THE TRUSTEES OF COLUMBIA UNIVERSITY IN THE CITY OF NEW YORK, priority 2008, dated 2018).
# “Also recorded” adds a separate entry of the source. Where two headings read alike, the source gives them in different places.
# Tests used:
# [1] = rat, in vivo; cited from earlier work
# [2] = biological target: PDE5 (Homo sapiens, UniProt O76074); settings: cited from earlier work
# [3] = in vivo, cited from earlier work
# [4] = system: APP/PS1 mice; assay: Contextual and cued fear conditioning; assay type: in vivo, mouse; settings: for effect on contextual fear memory in words: APP/PS1 (transgenic) mice
# Method: Given that sildenafil reversed LTP deficits in 3-month-old APP/PS1, it was then tested whether the inhibitor reversed the cognitive defects in these animals. As reported above sildenafil offers the advantage of crossing the BBB and therefore it can be easily utilized in behavioural experiments. Three-month-old mice were divided into 4 groups: APP/PS1 with sildenafil, APP/PS1 with vehicle, WT with sildenafil and WT with vehicle. Sildenafil and vehicle control solutions were administered i.p. at a concentration of 3 mg/kg. This concentration was chosen based on previous studies showing that these amounts of sildenafil raise hippocampal cGMP levels and improve memory in aged rats^A6 and mice^A7 independent of vascular effects^A6. The effects of acute administration of sildenafil was first examined on fear-conditioning learning, a type of learning that is impaired in several AD mouse models^A14 and depends on hippocampus and amygdala. The hippocampus is indispensable for contextual fear conditioning^A15, a form of associative learning in which mice must associate a neutral stimulus with an aversive one. Mice were trained to associate neutral stimuli with an aversive one. They were placed in a new context (fear conditioning box), exposed to a white noise cue (CS) paired with a mild foot shock (US), and injected with sildenafil immediately after the training. Fear learning was assessed twenty-four hours later by measuring freezing behaviour—the absence of all movement except for that necessitated by breathing—in response to representation of the context or of the auditory cue within a completely different context. No difference was found in the freezing behaviour among the four groups of mice before the training phase (FIG. 2A). Twenty-four hours later, a decrease in the freezing behaviour of vehicle-treated APP/PS1 mice compared with that of vehicle-treated WT littermates in the analysis of the contextual learning was observed (FIG. 2A). […] Fear conditioning, a hippocampus-independent task A^15, was next tested and no difference in freezing among the 4 groups was found, as APP/PS1 mice are known to have a selective hippocampus-dependent impairment in associative learning^A14.
# Sildenafil was tested to determine whether a brief course of treatment can provide long term benefits. The PDE5 inhibitor was examined to see if it maintains its protective effect against synaptic dysfunction and memory loss. In these experiments, both APP/PS1 and WT mice of 3 months of age were injected intraperitoneally with 3 mg/kg/day sildenafil for 3 weeks, then the treatment was stopped for 9-12 weeks prior to testing. The mice were next subjected to training for contextual learning. […] There were no differences between the 4 groups in the cued conditioning test.
# Three-month-old APP/PS1 and WT mice were separated into 4 groups: APP/PS1 mice treated with vehicle, APP/PS1 mice treated with PDE inhibitor, WT mice treated with vehicle, and WT mice treated with PDE inhibitor. […] In the remaining experiments, sildenafil was injected via i.p. The drug was administered either acutely or for 1 course of 3 week treatment. For assessment of the short-term effects of sildenafil, the drug was given at a concentration of 3 mg/kg immediately after the training. This dose yields concentrations of ˜2.5 μM cGMP in the hippocampus^A53. For assessment of long-term effects, sildenafil was given daily by i.p. injection at a concentration of 3 mg/kg for 3 weeks and then treatment was stopped for 9-12 weeks prior to behavioral testing. Contextual and cued fear conditioning was performed for 3 days. Radial-arm water-maze (RAWM) was performed for 3 weeks. Then, the animals were sacrificed for electrophysiological recordings. To decide the time of administration of sildenafil in the acute experiments, a series of studies was performed in which the inhibitor was injected i.p. at 5 min before the electric shock or at 5 min before the first acquisition trial with the radial arm water maze. […]
# [5] = system: APP/PS1 mice; assay: Radial-arm water maze (spatial working memory); assay type: in vivo, mouse; settings: APP/PS1 (transgenic) mice
# Text: Next, the effect of treatment with sildenafil was examined on spatial working memory, a type of short-term memory that can be studied with the radial-arm water maze test. […] Mice were required to learn and memorize the location of a hidden platform in one of the arms of a maze with respect to spatial cues. […] However, daily injections of sildenafil for 3 weeks immediately after the 4th acquisition trial ameliorated the behavioural performance of APP/PS1 mice (FIG. 2B).
# The effects of one course of 3-week treatment with sildenafil on spatial working memory were next tested using the radial-arm water-maze task. There was a difference between the number of errors made by vehicle-treated APP/PS1 and WT mice (FIG. 3B)^A12. Administration of sildenafil for 3 weeks, 9-12 weeks prior to the testing, reduced the gap between the two groups without affecting performance of the WT animals (FIG. 3B).
# Three-month-old APP/PS1 and WT mice were separated into 4 groups: APP/PS1 mice treated with vehicle, APP/PS1 mice treated with PDE inhibitor, WT mice treated with vehicle, and WT mice treated with PDE inhibitor. […] In the remaining experiments, sildenafil was injected via i.p. The drug was administered either acutely or for 1 course of 3 week treatment. For assessment of the short-term effects of sildenafil, the drug was given at a concentration of 3 mg/kg immediately after the training. This dose yields concentrations of ˜2.5 μM cGMP in the hippocampus^A53. For assessment of long-term effects, sildenafil was given daily by i.p. injection at a concentration of 3 mg/kg for 3 weeks and then treatment was stopped for 9-12 weeks prior to behavioral testing. Contextual and cued fear conditioning was performed for 3 days. Radial-arm water-maze (RAWM) was performed for 3 weeks. Then, the animals were sacrificed for electrophysiological recordings. To decide the time of administration of sildenafil in the acute experiments, a series of studies was performed in which the inhibitor was injected i.p. at 5 min before the electric shock or at 5 min before the first acquisition trial with the radial arm water maze. […] Thus, all the behavioral experiments on the acute effects of sildenafil reported in the result section were performed with injection after the training.
# This is a type of short-term memory that can be studied with the RAWM test^12. Briefly, the RAWM consisted of a white tank (120 cm diameter) filled with water (24-25° C.) and made opaque by the addition of non-toxic white paint. Within the tank walls were positioned so as to produce six arms, radiating from a central area. Spatial cues were presented on the walls of the testing room. At the end of one of the arms was positioned a clear 10 cm submerged (1.5 cm) platform that remained in the same location for every trial in one day, but was moved about randomly from day to day. On each trial the mouse started the task from a different randomly chosen arm. […] Each trial lasted 1 min and errors were counted each time the mouse entered the wrong arm or needed more than 20 sec to reach the platform. After each error the mouse was pulled back to the start arm for that trial. After 4 consecutive acquisition trials, the mouse was placed in its home cage for 30 min, then returned to the maze and administered a 5th retention trial. Testing was considered completed as the WT mice made the same number of errors at the 4th and 5th trial. The scores for each mouse on the last three days of testing were averaged and used for statistical analysis.
# [6] = system: CA1 region of hippocampal slices from APP/PS1 and WT mice; assay: Electrophysiological analysis (BST, LTP) of hippocampal slices perfused with inhibitor; assay type: cell-based, mouse
# [7] = system: isolated rabbit corpus cavernosum; settings: read-out: EC50, relaxant effect; cited from earlier work
# [8] = system: PDE3; settings: cited from earlier work
# [9] = system: PDE1; settings: cited from earlier work
# [10] = biological target: PDE2 (Homo sapiens, UniProt O00408); settings: cited from earlier work
# PDE2, sequence (O00408 whole entry): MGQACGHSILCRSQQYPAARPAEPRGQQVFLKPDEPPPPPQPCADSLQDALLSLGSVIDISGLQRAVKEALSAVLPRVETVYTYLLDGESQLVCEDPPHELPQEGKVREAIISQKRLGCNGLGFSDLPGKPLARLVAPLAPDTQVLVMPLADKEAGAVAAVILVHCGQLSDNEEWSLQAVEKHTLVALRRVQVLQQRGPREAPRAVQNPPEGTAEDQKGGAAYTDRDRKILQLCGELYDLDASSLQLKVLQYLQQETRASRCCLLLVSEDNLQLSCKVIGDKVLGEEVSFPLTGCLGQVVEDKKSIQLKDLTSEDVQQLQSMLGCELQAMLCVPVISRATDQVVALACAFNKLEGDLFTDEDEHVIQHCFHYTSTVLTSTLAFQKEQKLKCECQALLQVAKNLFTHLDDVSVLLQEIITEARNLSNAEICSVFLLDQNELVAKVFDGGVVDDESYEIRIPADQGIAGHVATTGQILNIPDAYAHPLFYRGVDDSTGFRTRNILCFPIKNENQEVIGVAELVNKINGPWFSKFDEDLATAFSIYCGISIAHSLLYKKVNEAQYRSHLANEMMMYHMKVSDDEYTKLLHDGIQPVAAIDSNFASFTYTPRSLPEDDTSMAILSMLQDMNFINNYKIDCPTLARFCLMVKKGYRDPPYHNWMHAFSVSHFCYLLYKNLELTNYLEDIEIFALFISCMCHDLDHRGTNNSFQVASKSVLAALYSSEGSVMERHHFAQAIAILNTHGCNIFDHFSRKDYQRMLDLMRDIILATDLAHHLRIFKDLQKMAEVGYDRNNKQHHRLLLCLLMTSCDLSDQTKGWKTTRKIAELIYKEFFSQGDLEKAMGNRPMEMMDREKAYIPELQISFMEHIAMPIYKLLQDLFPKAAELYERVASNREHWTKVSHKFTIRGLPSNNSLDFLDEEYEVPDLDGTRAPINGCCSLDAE
# [11] = system: PDE6; settings: cited from earlier work
# [12] = system: PDE4; settings: cited from earlier work
# [13] = system: human Aβ40 and Aβ42 levels; settings: rolipram, earlier study; cited from earlier work
# [14] = 3 month-old WT, sildenafil 3 mg/Kg or tadalafil 1 mg/Kg i.p.
# [15] = WT slices, 120 min after tetanus, sildenafil 50 nM, tadalafil 50 nM, IC354 1 μM
# [16] = WT slices, sildenafil or tadalafil 50 nM
# [17] = slices of 3-month-old APP/PS1 mice, 120 min after tetanus, 10 min perfusion (sildenafil 50 nM, tadalafil 50 nM, IC354 1 μM)
smiles,measurement,setting,value
Cc1cc(-c2ccccc2)nnc1NCCN1CCOCC1 [minaprine],brain/blood ratio,[1],> 2
"CCOC(=O)c1cc2c(cn1)[nH]c1ccccc12 [beta-CCE, Ethyl beta-carboline-3-carboxylate]",PDE5 inhibition in words,[2],"weak, non-selective PDE5 inhibitor"
"CN1CC(=O)N2C(Cc3c([nH]c4ccccc34)C2c2ccc3c(c2)OCO3)C1=O (stereo not drawn) [tadalafil, 6-benzo[1,3]dioxol-5-yl-2-methyl-2,3,6,7,12,12a-hexahydro-pyrazino[1′,2′:1,6]pyrido[3,4-b]indole-1,4-dione]",ability to cross the BBB in words,[3],unlikely to cross it; also recorded: does not cross it
same,ability to cross the BBB in words,[3]; listed as Tadalafil,does not cross it
same,contextual freezing time,"[4]; 3 month-old APP/PS1, sildenafil 3 mg/Kg or tadalafil 1 mg/Kg i.p., 24 hrs after training",18.76±3.89%
same,contextual freezing time as % of vehicle-treated APP/PS1 mice,"[4]; 3 month-old APP/PS1, tadalafil 1 mg/Kg i.p.",~122%
same,contextual freezing as % of vehicle-treated WT mice,[4]; [14],~85%
same,contextual freezing time,[4]; [14],28.29±3.30%
same,effect on contextual fear memory in words,[4],does not modify contextual fear conditioning
same,effect on contextual fear memory in words,[4]; listed as Tadalafil,did not improve associative learning
same,effect on spatial working memory (RAWM) in words,[5],does not improve spatial working memory
same,effect on spatial working memory (RAWM) in words,[5]; listed as Tadalafil,did not improve
same,"LTP, fEPSP slope as % of baseline",[6]; [15],232.45±21.92%
same,level of LTP as % of vehicle-treated WT slices,[6]; [15],~106%
same,basal synaptic responses without tetanus as % of vehicle-treated WT slices,[6]; [16],~98%
same,"basal synaptic responses without tetanus, fEPSP % of baseline",[6]; [16],103.65±1.63%
same,effect on LTP impairment in words,"[6]; slices from APP/PS1 (transgenic) mice, 10 min prior to tetanus",reverses LTP impairment
same,"LTP, fEPSP slope as % of baseline",[6]; [17],209.49±13.89%
same,level of LTP as % of vehicle-treated WT littermates,[6]; [17],~96%
COC(=O)c1c(-c2cc(OC)c(OC)c(OC)c2)c2ccc(OCc3ccccn3)cc2c(=O)n1-c1ccc(N)cc1.O=S(=O)(O)O [T1032],EC50,[7],7.9 nM
same,PDE3/PDE5,[8],> 10 000
same,selectivity ratio for PDE1 (PDE1/PDE5),[9],1300
same,PDE2/PDE5,[10],> 10 000
same,IC50,[2]; read-out: IC50 against PDE5,< 1 nM
same,selectivity ratio for PDE6 (PDE6/PDE5),[11],28
same,PDE4/PDE5,[12],4700
COc1ccc(C2CNC(=O)C2)cc1OC1CCCC1 (stereo not drawn) [rolipram],effect on Aβ in brains of APP/PS1 mice in words,[13],did not affect Aβ concentration; also recorded: did not affect Aβ load
